# Measurements from EP0906100B1, “USE OF 5-HT 1A? RECEPTOR ANTAGONISTS FOR THE TREATMENT OF URINARY INCONTINENCE” (RECORDATI S.A., priority 1996, dated 1997).
# Like-named read-outs stand apart in the source and are kept apart here.
# Tests used:
# [1] = system: rhythmic bladder voiding contractions; test: Volume-induced rhythmic bladder voiding contractions in anaesthetized rats; assay type: in vivo; settings: for AMPLITUDE mm Hg before treatment / FREQUENCY No. contr./15 min before treatment: baseline; for AMPLITUDE mm Hg before treatment / AMPLITUDE mm Hg after treatment: animals with frequency reduction <50%; for AMPLITUDE mm Hg before treatment / FREQUENCY No. contr./15 min before treatment / AMPLITUDE mm Hg after treatment / FREQUENCY No. contr./15 min after treatment: mean±S.E.; for BLADDER CONTRACTIONS Disappearance time: duration of bladder quiescence, mean (S.E. in next cell); for ED (10 min disappearance of contractions) / ED50: Rattus norvegicus, iv; for ED (10 min disappearance of contractions): extrapolated dose inducing 10 min of disappearance of the contractions, linear regression
# Experimental: Female Sprague Dawley rats weighing 225-275 g (Crl: CD° BR, Charles River Italia) were used. The animals were housed with free access to food and water and were maintained on a forced 12 h alternating light-dark cycle at 22-24°C for at least one week, except during the experiment. The activity on the rhythmic bladder voiding contractions was evaluated according to the method of Dray (J. Pharmcol. Methods, 13:157, 1985), with some modifications as in Guarneri (Phannacol. Res., 27:173, 1993). […] The catheter was tied in place with a ligature around the external urethral orifice and was connected with conventional pressure transducers (Statham P23 ID/P23 XL). […] The bladder was then filled via the recording catheter by incremental volumes of warm (37°C) saline until reflex bladder voiding contractions occurred (usually 0.8-1.5 ml). Two parameters were recorded from the cystometrogram: the frequency of voiding contractions, calculated by counting the number of peaks/15 min of observation, and the mean amplitude of these contractions (mean height of the peaks in mmHg) in the same time period. For intravenous (i. v. ) injection of bioactive compounds, a PE 50 polyethylene tubing filled with physiological saline was inserted into the jugular vein.
# Bioactivity was assessed in individual animals (using 6-10 rats per dose), by recording the number and height of the peaks for 15 min after drug injection and comparing them with those previously recorded for 15 min after the intravenous administration of vehicle alone. […] The statistical significance of changes in frequency and amplitude before and after treatment was assessed by Student's t test for paired data. Changes showing a probability P<0.01 were considered significant.
# An all-or-none criterion was also used to compare bioactivity in terms of ED50 values. Rats showing a treatment-related change of ≥30% relative to the basal value were considered to be positive. Quantal dose-response curves and ED50 values were evaluated by the method of Bliss (J. Pharm. Pharmacol., 11:192, 1938).
# The rapid distension of the urinary bladder in urethane-anaesthetized rats produced a series of rhythmic bladder voiding contractions whose characteristics have been described (Maggie et al., Brain Res., 380, 83, 1986; Maggi, et al., J. Pharmacol. Exp. Ther., 230, 500, 1984). The frequency of these contractions is related to the sensory afferent arm of reflex micturition and to the integrity of the micturition centre, while their amplitude is a property of the efferent arm of the reflex (Maggi et al., J. Pharmacol. Meth., 15, 157, 1986; Maggi et al., Brain Res.. 415, 1, 1987; Maggi et al., Naun. Schmied. Arch. Pharmacol., 332, 276, 1986; Maggi et al., J. Urol., 136, 696, 1986).
# [2] = molecular target: α1-adrenergic receptor; test: [3H]prazosin binding (α1-receptors), rat cerebral cortices; settings: 0.35 nM [3H]prazosin, read-out: Binding affinity for the α1-adrenergic receptor, Ki
# Experimental: [^3H]prazosin binding (α1-receptors):
# Rat cerebral cortices were homogenized in 50 volumes of ice-cold 50 mM Tris-HCl pH 7.4. The homogenates were centrifuged at 48,000 x g for 10 minutes, and the pellets were resuspended in the same volume of ice-cold buffer, centrifuged, and resuspended two more times. The final pellets were resuspended in 100 volumes of 50 mM Tris-HCl, pH 7.4, containing 0.1 % ascorbic acid and 10 µM pargyline. […] Non-specific binding was determined in the presence of 10 µM phentolamine. The incubations were terminated by rapid filtration through Whatman GF/B filters using a Brandel cell harvester, after which the filters were washed with 3x3 ml of ice-cold buffer. The radioactivity retained on the filters was determined by liquid scintillation counting.
# [3] = i.v., inhibition of frequency of rhythmic bladder voidings (ED50)
SMILES,AMPLITUDE mm Hg before treatment ([1]; 1 µg/kg i.v. group) [mm Hg],FREQUENCY No. contr./15 min before treatment ([1]; 1 µg/kg i.v. group) [No. contr./15 min],AMPLITUDE mm Hg after treatment ([1]; 1 µg/kg i.v.) [mm Hg],BLADDER CONTRACTIONS Disappearance time ([1]; 1 µg/kg i.v.) [min],FREQUENCY No. contr./15 min after treatment ([1]; 1 µg/kg i.v.) [No. contr./15 min],AMPLITUDE mm Hg before treatment ([1]; 3 µg/kg i.v. group) [mm Hg],FREQUENCY No. contr./15 min before treatment ([1]; 3 µg/kg i.v. group) [No. contr./15 min],AMPLITUDE mm Hg after treatment ([1]; 3 µg/kg i.v.) [mm Hg],BLADDER CONTRACTIONS Disappearance time ([1]; 3 µg/kg i.v.) [min],FREQUENCY No. contr./15 min after treatment ([1]; 3 µg/kg i.v.) [No. contr./15 min],AMPLITUDE mm Hg before treatment ([1]; 10 µg/kg i.v. group) [mm Hg],FREQUENCY No. contr./15 min before treatment ([1]; 10 µg/kg i.v. group) [No. contr./15 min],AMPLITUDE mm Hg after treatment ([1]; 10 µg/kg i.v.) [mm Hg],BLADDER CONTRACTIONS Disappearance time ([1]; 10 µg/kg i.v.) [min],FREQUENCY No. contr./15 min after treatment ([1]; 10 µg/kg i.v.) [No. contr./15 min],AMPLITUDE mm Hg before treatment ([1]; 30 µg/kg i.v. group) [mm Hg],FREQUENCY No. contr./15 min before treatment ([1]; 30 µg/kg i.v. group) [No. contr./15 min],AMPLITUDE mm Hg after treatment ([1]; 30 µg/kg i.v.) [mm Hg],BLADDER CONTRACTIONS Disappearance time ([1]; 30 µg/kg i.v.) [min],FREQUENCY No. contr./15 min after treatment ([1]; 30 µg/kg i.v.) [No. contr./15 min],further results
"COc1ccccc1N1CCN(CCN(C(=O)C2CCCCC2)c2ccccn2)CC1 [Compound A, N-{2-[4-(2-methoxyphenyl)-1-piperazinyl]-ethyl}-N-(2-pyridyl)-cyclohexanecarboxamide]",25.4±2.0,11.7±1.0,23.1±1.9,1.34,11.6±1.3,25.1±2.2,11.5±0.7,21.7±2.0,2.15,9.1±1.0,26.0±3.8,11.5±1.5,22.3±3.8,8.13,5.9±1.6,28.5±2.5,11.8±0.7,25.0±4.0,8.87,3.8±0.7,"AMPLITUDE mm Hg before treatment ([1]; 100 µg/kg i.v. group): 28.0±4.6 mm Hg; FREQUENCY No. contr./15 min before treatment ([1]; 100 µg/kg i.v. group): 12.0±0.9 No. contr./15 min; AMPLITUDE mm Hg after treatment ([1]; 100 µg/kg i.v.): 25.7±2.9 mm Hg; BLADDER CONTRACTIONS Disappearance time ([1]; 100 µg/kg i.v.): 12.56 min; FREQUENCY No. contr./15 min after treatment ([1]; 100 µg/kg i.v.): 4.1±1.1 No. contr./15 min; FREQUENCY No. contr./15 min before treatment ([1]; 300 µg/kg i.v. group): 9.5±0.6 No. contr./15 min; BLADDER CONTRACTIONS Disappearance time ([1]; 300 µg/kg i.v.): 13.37 min; FREQUENCY No. contr./15 min after treatment ([1]; 300 µg/kg i.v.): 2.2±0.5 No. contr./15 min; ED (10 min disappearance of contractions) [1]: 0.037 mg/kg; maximal change of amplitude of the rhythmic bladder voidings ([1]; i.v., no dose-dependence observed): about 13%; Ki [2]: 296 nM"
"O=C(C1CCCCC1)N(CCN1CCN(c2cccc3[nH]ccc23)CC1)c1ccccn1 [Compound B, N-{2-[4-(4-Indolyl)-1-piperazinyl]-ethyl}-N-(2-pyridyl)-cyclohexanecarboxamide]",26.5±4.3,11.7±1.5,22.7±5.1,4.33,8.7±1.3,33.7±2.4,9.7±0.8,25.3±1.2,7.58,4.7±1.1,19.0,11.7±1.7,17.0,10.00,4.2±0.9,,12.0±1.1,,8.85,4.5±1.4,"AMPLITUDE mm Hg before treatment ([1]; 0.3 µg/kg i.v. group): 31.0±3.7 mm Hg; FREQUENCY No. contr./15 min before treatment ([1]; 0.3 µg/kg i.v. group): 10.7±1.4 No. contr./15 min; AMPLITUDE mm Hg after treatment ([1]; 0.3 µg/kg i.v.): 27.7±4.1 mm Hg; BLADDER CONTRACTIONS Disappearance time ([1]; 0.3 µg/kg i.v.): 1.10 min; FREQUENCY No. contr./15 min after treatment ([1]; 0.3 µg/kg i.v.): 11.3±1.7 No. contr./15 min; ED (10 min disappearance of contractions) [1]: 0.009 mg/kg; ED50 ([1]; read-out: ED50 FREQUENCY (and 95% confidence limits), i.v., quantal criterion (change ≥30% relative to basal value)): 0.001 mg/kg; fold more active than NAN-190 [1, 3]: 46 fold; fold more active than flavoxate [1, 3]: 2650 fold; Ki [2]: 458 nM"
"CCN(CC)CC#CCOC(=O)C(O)(c1ccccc1)C1CCCCC1 (centres unmarked) [Oxybutynin, oxybutynin]",,,,,,,,,,,,,,,,26.7±2.7,14.8±1.9,23.3±2.5,,15.5±2.3,AMPLITUDE mm Hg before treatment ([1]; 100 µg/kg i.v. group): 25.0±3.7 mm Hg; FREQUENCY No. contr./15 min before treatment ([1]; 100 µg/kg i.v. group): 13.3±1.1 No. contr./15 min; AMPLITUDE mm Hg after treatment ([1]; 100 µg/kg i.v.): 18.7±2.7 mm Hg; FREQUENCY No. contr./15 min after treatment ([1]; 100 µg/kg i.v.): 14.7±1.0 No. contr./15 min; AMPLITUDE mm Hg before treatment ([1]; 300 µg/kg i.v. group): 20.9±1.7 mm Hg; FREQUENCY No. contr./15 min before treatment ([1]; 300 µg/kg i.v. group): 10.1±0.7 No. contr./15 min; AMPLITUDE mm Hg after treatment ([1]; 300 µg/kg i.v.): 13.6±0.8 mm Hg; FREQUENCY No. contr./15 min after treatment ([1]; 300 µg/kg i.v.): 8.8±0.8 No. contr./15 min; AMPLITUDE mm Hg before treatment ([1]; 1000 µg/kg i.v. group): 20.3±2.4 mm Hg; FREQUENCY No. contr./15 min before treatment ([1]; 1000 µg/kg i.v. group): 9.7±0.8 No. contr./15 min; AMPLITUDE mm Hg after treatment ([1]; 1000 µg/kg i.v.): 11.8±1.2 mm Hg; FREQUENCY No. contr./15 min after treatment ([1]; 1000 µg/kg i.v.): 9.5±0.8 No. contr./15 min; AMPLITUDE mm Hg before treatment ([1]; 3000 µg/kg i.v. group): 18.0±1.4 mm Hg; FREQUENCY No. contr./15 min before treatment ([1]; 3000 µg/kg i.v. group): 10.0±0.7 No. contr./15 min; AMPLITUDE mm Hg after treatment ([1]; 3000 µg/kg i.v.): 10.8±1.0 mm Hg; FREQUENCY No. contr./15 min after treatment ([1]; 3000 µg/kg i.v.): 9.9±1.5 No. contr./15 min; ED50 ([1]; read-out: ED50 AMPLITUDE (and 95% confidence limits)): 0.24 mg/kg
